The values below come from ChEMBL document CHEMBL3098003, “Structure-based design of 2-aminopyridine oxazolidinones as potent and selective tankyrase inhibitors” (ACS Med Chem Lett, 2013).

SMILES strings stand for the structures.

Assay [1] addresses T1, Tankyrase 1/2 (Homo sapiens, UniProt Q9H2K2+O95271).
T1 sequence (Q9H2K2 whole entry): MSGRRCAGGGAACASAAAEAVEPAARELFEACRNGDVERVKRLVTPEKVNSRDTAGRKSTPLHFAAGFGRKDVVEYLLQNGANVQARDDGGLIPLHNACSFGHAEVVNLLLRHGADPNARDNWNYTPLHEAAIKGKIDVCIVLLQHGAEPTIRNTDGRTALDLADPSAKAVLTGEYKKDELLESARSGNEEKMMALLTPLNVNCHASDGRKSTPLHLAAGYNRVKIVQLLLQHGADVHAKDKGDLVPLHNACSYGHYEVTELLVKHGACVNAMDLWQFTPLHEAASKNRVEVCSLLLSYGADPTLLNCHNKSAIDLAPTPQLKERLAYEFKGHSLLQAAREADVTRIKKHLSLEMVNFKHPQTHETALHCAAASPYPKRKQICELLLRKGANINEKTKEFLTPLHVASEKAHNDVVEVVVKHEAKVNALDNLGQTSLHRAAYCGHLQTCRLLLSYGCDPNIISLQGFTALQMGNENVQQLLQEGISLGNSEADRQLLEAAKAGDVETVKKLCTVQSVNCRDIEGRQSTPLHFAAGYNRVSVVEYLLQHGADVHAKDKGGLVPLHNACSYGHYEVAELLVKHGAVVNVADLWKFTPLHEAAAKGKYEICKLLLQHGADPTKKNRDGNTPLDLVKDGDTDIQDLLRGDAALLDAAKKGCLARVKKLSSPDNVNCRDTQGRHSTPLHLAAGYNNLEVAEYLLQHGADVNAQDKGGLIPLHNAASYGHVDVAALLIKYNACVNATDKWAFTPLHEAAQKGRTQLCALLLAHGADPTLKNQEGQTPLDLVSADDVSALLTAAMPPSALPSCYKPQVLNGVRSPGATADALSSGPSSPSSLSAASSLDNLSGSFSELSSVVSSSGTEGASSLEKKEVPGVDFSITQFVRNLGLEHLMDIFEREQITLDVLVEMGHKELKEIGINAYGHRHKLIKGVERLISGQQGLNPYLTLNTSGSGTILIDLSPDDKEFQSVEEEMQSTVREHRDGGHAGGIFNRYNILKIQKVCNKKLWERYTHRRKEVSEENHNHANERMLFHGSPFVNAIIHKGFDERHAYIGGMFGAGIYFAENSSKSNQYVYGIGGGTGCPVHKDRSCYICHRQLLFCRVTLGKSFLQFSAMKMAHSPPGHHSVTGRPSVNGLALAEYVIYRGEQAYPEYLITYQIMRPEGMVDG
T1 sequence (O95271 whole entry): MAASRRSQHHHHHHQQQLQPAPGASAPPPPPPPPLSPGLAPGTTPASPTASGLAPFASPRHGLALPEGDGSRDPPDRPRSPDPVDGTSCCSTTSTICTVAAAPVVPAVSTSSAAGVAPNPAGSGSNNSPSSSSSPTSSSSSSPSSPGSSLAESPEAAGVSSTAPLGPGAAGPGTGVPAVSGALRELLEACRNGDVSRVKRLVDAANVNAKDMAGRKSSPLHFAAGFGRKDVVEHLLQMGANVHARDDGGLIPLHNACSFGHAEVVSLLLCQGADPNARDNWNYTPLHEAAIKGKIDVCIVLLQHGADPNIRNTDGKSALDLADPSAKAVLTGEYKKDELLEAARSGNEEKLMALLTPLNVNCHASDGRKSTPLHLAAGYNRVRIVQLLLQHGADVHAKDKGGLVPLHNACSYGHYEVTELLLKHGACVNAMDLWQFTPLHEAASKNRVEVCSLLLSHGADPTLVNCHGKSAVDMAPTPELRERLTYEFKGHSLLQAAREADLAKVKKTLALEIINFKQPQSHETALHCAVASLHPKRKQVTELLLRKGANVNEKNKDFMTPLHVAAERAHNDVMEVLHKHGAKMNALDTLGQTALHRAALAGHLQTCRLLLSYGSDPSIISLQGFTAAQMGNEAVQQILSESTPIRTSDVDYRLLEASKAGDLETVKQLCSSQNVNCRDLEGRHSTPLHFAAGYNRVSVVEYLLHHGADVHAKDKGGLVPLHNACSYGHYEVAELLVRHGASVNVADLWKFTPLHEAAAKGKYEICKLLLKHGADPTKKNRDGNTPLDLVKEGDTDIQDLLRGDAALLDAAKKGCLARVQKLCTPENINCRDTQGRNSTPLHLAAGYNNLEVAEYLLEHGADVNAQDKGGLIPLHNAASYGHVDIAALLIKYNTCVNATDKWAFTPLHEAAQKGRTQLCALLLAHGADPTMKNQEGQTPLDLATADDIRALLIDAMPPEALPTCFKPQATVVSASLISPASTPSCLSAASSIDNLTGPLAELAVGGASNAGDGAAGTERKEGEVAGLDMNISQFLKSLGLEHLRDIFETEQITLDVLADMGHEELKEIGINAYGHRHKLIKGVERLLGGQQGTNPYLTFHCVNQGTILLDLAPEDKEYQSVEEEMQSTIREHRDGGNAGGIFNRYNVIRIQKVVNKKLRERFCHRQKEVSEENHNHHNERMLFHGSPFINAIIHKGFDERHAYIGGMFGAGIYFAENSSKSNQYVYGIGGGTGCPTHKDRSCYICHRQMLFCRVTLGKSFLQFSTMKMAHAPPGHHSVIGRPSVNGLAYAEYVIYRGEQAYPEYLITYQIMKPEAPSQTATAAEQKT
Put plainly: Inhibition of tankyrase in human SW480 cells assessed as degradation of total beta-catenin after 40 to 48 hrs. The format is cell-based.

Assay [2] has as its target T2, Poly [ADP-ribose] polymerase tankyrase-1 (Homo sapiens, UniProt O95271).
T2 sequence (O95271 whole entry): T1 sequence (O95271 whole entry)
Kind of assay: Inhibition of recombinant 6XHis-tagged TNKS1 (1091 to 1325) (unknown origin) after 60 mins by spectrophotometric analysis.

Assay [3] has as its target T1, Tankyrase 1/2. Put plainly: Inhibition of tankyrase in human SW480 cells assessed as axin2 accumulation after 24 hrs by Hoechst dye-based assay. The format is cell-based.
For assay [4], the target named is Poly [ADP-ribose] polymerase 1 (Homo sapiens, UniProt P09874). Put plainly: Inhibition of PARP1 (unknown origin).
For assay [5], the target named is T1, Tankyrase 1/2. Kind of assay: Inhibition of tankyrase in human DLD1 cells assessed as inhibition of Wnt gene transcription after 40 to 48 hrs by STF assay. The assay is classed as cell-based. The conditions noted are these: dld-1.
Assay [6] deals with Poly [ADP-ribose] polymerase 2 (Homo sapiens, UniProt Q9UGN5). Kind of assay: Inhibition of PARP2 (unknown origin).
Chain of Poly [ADP-ribose] polymerase 2 (Q9UGN5 whole entry): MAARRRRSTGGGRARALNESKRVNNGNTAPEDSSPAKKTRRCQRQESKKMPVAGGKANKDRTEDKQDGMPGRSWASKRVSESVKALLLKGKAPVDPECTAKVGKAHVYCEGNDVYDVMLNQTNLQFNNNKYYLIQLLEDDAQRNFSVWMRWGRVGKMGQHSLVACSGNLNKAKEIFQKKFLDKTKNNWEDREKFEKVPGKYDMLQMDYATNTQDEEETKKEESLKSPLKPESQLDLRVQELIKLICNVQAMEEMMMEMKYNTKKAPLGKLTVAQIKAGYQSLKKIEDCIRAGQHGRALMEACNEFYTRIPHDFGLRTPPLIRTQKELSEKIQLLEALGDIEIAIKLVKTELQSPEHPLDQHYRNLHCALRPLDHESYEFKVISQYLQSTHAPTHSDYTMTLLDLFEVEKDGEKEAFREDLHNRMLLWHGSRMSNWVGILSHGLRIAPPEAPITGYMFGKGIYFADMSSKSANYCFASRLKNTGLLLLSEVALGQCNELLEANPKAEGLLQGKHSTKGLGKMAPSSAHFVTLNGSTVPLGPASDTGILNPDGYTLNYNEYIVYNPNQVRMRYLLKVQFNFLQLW

Chain of Poly [ADP-ribose] polymerase 1 (P09874 whole entry): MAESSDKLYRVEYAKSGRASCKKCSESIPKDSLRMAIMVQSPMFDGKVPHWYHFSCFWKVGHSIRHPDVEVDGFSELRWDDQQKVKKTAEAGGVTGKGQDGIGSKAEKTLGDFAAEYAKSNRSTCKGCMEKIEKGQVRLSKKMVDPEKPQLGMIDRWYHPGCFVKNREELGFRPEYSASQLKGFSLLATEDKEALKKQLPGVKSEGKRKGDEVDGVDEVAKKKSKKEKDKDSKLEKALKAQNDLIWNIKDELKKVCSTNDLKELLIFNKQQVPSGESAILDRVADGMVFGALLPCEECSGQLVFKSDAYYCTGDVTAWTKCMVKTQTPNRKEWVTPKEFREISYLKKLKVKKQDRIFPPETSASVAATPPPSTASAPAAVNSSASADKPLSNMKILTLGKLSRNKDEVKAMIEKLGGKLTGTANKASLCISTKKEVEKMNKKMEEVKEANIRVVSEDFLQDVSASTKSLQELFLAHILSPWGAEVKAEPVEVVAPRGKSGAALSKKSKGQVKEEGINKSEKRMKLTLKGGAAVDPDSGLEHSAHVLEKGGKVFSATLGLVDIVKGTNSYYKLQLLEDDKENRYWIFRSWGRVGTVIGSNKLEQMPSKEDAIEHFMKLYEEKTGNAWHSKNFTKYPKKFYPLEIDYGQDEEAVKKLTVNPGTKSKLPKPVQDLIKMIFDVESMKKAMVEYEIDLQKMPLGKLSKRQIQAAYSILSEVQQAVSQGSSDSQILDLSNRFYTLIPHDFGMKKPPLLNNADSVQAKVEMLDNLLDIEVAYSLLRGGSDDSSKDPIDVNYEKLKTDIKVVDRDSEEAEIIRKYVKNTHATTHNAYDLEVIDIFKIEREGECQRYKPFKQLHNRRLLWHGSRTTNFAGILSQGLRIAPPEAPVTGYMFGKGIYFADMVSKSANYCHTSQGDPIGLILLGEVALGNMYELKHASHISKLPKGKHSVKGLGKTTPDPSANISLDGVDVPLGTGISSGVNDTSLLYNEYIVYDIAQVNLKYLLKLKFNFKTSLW

As to `CC1(C)CC(=O)Nc2cc(NC(=O)c3cc(-c4ccc5nc(N)ncc5c4)ccc3F)ccc21`, the half-maximal inhibitory concentration (IC50) (in general, the concentration at which inhibition is half-maximal) in assay [1] came out at 2000 nM; in assay [2], 150 nM.
Turning to `CC1(C)OC(=O)N([C@H]2CC[C@H](c3ccc(N)nc3)CC2)[C@H]1c1ccccc1`, the IC50 in assay [2] amounted to 148 nM.
`CC1(C)OC(=O)N([C@H]2CC[C@H](c3cnc(N)c(C#N)c3)CC2)[C@H]1c1ccccc1`: the EC50 (as a rule, the concentration giving half of the maximal effect) in assay [3] turned out to be 474 nM. The IC50 in assay [1] is 392 nM; in assay [4] it was more than 85000 nM; in assay [5], 43 nM; in assay [2], 9 nM; in assay [6], more than 170000 nM.
